ChEMBL document CHEMBL3739384 (Medchemcomm, 2015)

What follows are molecules tested against Histamine H4 receptor (Homo sapiens, UniProt Q9H3N8) (assay: Displacement of [3H]-histamine from human histamine H4 receptor expressed in HEK293T cells after 1 to 1.5 hrs by liquid scintillation counting analysis).
Type: cell-based, HEK-293T

Row | Ki | SMILES
1 | 0.148 µM | Cc1nc(N2CCN(C)CC2)c2oc3ccccc3c2n1
2 | 0.269 µM | CCc1nc(N2CCN(C)CC2)c2oc3ccccc3c2n1
3 | 5.89 µM | COc1ccc2[nH]c3c(N4CCN(C)CC4)ncnc3c2c1
4 | 0.145 µM | CN1CCN(c2ncnc3c2oc2ccccc23)CC1
5 | 5.89 µM | CN(C)CCNc1ncnc2c1[nH]c1ccc(Cl)cc12
6 | 6.92 µM | Cc1cc2nc(SCCN(C)C)[nH]c2cc1C
7 | 6.31 µM | COc1ccc2c(c1)[nH]c1c(N3CCN(C)CC3)ncnc12
8 | 6.92 µM | Cc1cc(N2CCN(C)CC2)nc(N2CCOCC2)n1
9 | 6.46 µM | Cc1nnc2c(N3CCN(C)CC3)nc3ccccc3n12

Each molecule was assayed against Beta-2 adrenergic receptor (Homo sapiens, UniProt P07550) (assay: Displacement of [3H]-dihydroalprenolol from human beta2 adrenergic receptor expressed in HEK293T cells after 1 to 1.5 hrs by liquid scintillation counting analysis).
Type: cell-based, HEK-293T

Chain of Beta-2 adrenergic receptor (P07550 whole entry): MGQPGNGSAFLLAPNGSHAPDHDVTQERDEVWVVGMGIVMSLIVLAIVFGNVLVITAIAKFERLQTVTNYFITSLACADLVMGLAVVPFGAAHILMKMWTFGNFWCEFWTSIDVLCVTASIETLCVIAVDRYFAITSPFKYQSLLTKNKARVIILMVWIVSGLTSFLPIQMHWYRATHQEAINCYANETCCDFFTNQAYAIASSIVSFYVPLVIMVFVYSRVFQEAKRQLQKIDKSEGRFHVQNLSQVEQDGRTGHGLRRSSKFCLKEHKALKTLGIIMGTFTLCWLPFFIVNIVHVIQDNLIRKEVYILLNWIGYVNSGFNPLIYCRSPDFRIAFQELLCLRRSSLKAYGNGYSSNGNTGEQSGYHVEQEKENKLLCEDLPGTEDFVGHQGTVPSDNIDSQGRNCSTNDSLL

Row | Ki | SMILES
10 | > 10 µM | Cc1nc(N2CCN(C)CC2)c2oc3ccccc3c2n1
11 | > 10 µM | CCc1nc(N2CCN(C)CC2)c2oc3ccccc3c2n1
12 | > 10 µM | COc1ccc2[nH]c3c(N4CCN(C)CC4)ncnc3c2c1
13 | > 10 µM | CN1CCN(c2ncnc3c2oc2ccccc23)CC1
14 | > 10 µM | CN(C)CCNc1ncnc2c1[nH]c1ccc(Cl)cc12
15 | > 10 µM | COc1ccc2c(c1)[nH]c1c(N3CCN(C)CC3)ncnc12

What follows are molecules tested against Histamine H1 receptor (Homo sapiens, UniProt P35367) (assay: Displacement of [3H]-mepyramine from human histamine H1 receptor expressed in HEK293T cells after 1 to 1.5 hrs by liquid scintillation counting analysis).
Type: cell-based, HEK-293T

Chain of Histamine H1 receptor (P35367 whole entry): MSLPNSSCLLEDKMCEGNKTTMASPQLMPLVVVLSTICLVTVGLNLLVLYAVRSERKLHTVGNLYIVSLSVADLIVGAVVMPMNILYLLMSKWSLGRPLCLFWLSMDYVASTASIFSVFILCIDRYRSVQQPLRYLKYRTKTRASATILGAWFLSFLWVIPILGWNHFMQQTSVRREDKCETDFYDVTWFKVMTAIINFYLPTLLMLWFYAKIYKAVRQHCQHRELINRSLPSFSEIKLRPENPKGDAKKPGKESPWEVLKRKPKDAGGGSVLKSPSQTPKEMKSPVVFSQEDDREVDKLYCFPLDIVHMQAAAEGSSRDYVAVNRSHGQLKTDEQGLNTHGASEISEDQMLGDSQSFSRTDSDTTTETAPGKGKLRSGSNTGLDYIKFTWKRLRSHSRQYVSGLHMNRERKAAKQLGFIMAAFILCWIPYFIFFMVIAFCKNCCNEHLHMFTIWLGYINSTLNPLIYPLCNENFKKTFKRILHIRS

Row | Ki | SMILES
16 | > 10 µM | Cc1cc2nc(SCCN(C)C)[nH]c2cc1C
17 | < 10 µM | Cc1cc(N2CCN(C)CC2)nc(N2CCOCC2)n1
18 | < 10 µM | Cc1nnc2c(N3CCN(C)CC3)nc3ccccc3n12
